Measurements reported in patent US10765662B2, “Mono- or di-substituted indole derivatives as dengue viral replication inhibitors” (Janssen Pharmaceuticals, Inc., priority 2015, dated 2020).

Experiments:
in vitro = type: cell-based; conditions: African green monkey, CC50
Experimental: (§1) In parallel, the toxicity of the compounds was assessed on the same plates. Once the read-out for the eGFP signal was done, 40 μL of ATPlite, a cell viability stain, was added to all wells of the 384-well plates. ATP is present in all metabolically active cells and the concentration declines very rapidly when the cells undergo necrosis or apoptosis. The ATPLite assay system is based on the production of light caused by the reaction of ATP with added luciferase and D-luciferin. The plates were incubated for 10 minutes at room temperature. Next, the plates were measured on a ViewLux. The half maximal cytotoxic concentration (CC50) was also determined, defined as the concentration required to reduce the luminescent signal by 50% compared to that of the cell control wells. Finally, the selectivity index (SI) was determined for the compounds, which was calculated as followed: SI=CC50/EC50.

[1] = tested on: DENV-2 16681 strain labeled with enhanced green fluorescent protein; experiment: DENV-2 antiviral assay (eGFP fluorescence read-out in Vero cells); type: cell-based, Dengue virus; conditions: DENV-2 16681 eGFP, MOI 0.5, 3 days
Experimental: The antiviral activity of all the compounds of the invention was tested against the DENV-2 16681 strain which was labeled with enhanced green fluorescent protein (eGPF). The culture medium consists of minimal essential medium supplemented with 2% of heat-inactivated fetal calf serum, 0.04% gentamycin (50 mg/mL) and 2 mM of L-glutamine. Vero cells, obtained from ECACC, were suspended in culture medium and 25 μL was added to 384-well plates (2500 cells/well), which already contain the antiviral compounds. Typically, these plates contain a 5-fold serial dilution of 9 dilution steps of the test compound at 200 times the final concentration in 100% DMSO (200 nL). […] Finally, each plate contains wells which are assigned as virus controls (containing cells and virus in the absence of compound), cell controls (containing cells in the absence of virus and compound) and medium controls (containing medium in the absence of cells, virus and compounds). To the wells assigned as medium control, 25 μL of culture medium was added instead of Vero cells. Once the cells were added to the plates, the plates were incubated for 30 minutes at room temperature to allow the cells to distribute evenly within the wells. Next, the plates were incubated in a fully humidified incubator (37° C., 5% CO2) until the next day. Then, DENV-2 strain 16681, labeled with eGFP, was added at a multiplicity of infection (MOI) of 0.5. Therefore, 15 μL of virus suspension was added to all the wells containing test compound and to the wells assigned as virus control. In parallel, 15 μL of culture medium was added to the medium and cell controls. Next, the plates were incubated for 3 days in a fully humidified incubator (37° C., 5% CO2). At the day of the read out, the eGFP fluorescence was measured using an automated fluorescence microscope at 488 nm (blue laser). Using an in-house LIMS system, inhibition dose response curves for each compound were calculated and the half maximal effective concentration (EC50) was determined. Therefore, the percent inhibition (I) for every test concentration is calculated using the following formula: I=100*([…])/(SVC−SCC); ST, SCC and SVC are the amount of eGFP signal in the test compound, cell control and virus control wells, respectively. The EC50 represents the concentration of a compound at which the virus replication is inhibited with 50%, as measured by a 50% reduction of the eGFP fluorescent intensity compared to the virus control. The EC50 is calculated using linear interpolation (Table 1).

Vero cells = experiment: in vitro; type: cell-based; conditions: African green monkey
Experimental: as §1

[2] = Dengue virus, DENV2, Vero, 72 h

COc1cc(NC(C(=O)c2c[nH]c3cc(F)ccc23)c2ccc(Cl)cc2OCCO)cc(S(C)(=O)=O)c1 (racemic) [Compound 1, 2-(4-chloro-2-(2-hydroxyethoxy)phenyl)-1-(6-fluoro-1H-indol-3-yl)-2-((3-methoxy-5-(methylsulfonyl)phenyl)amino)ethanone]
CC50 (in vitro): 5100 nM
EC50 [1, 2]: 0.43 nM

COc1cc(NC(C(=O)c2c[nH]c3cc(OC)c(C)cc23)c2ccc(Cl)cc2OCCO)cc(S(C)(=O)=O)c1 (racemic) [Compound 6, 2-(4-chloro-2-(2-hydroxyethoxy)phenyl)-2-((3-methoxy-5-(methylsulfonyl)phenyl)amino)-1-(6-methoxy-5-methyl-1H-indol-3-yl)ethanone]
CC50 (in vitro): 4700 nM
EC50 [1, 2]: 0.37 nM

COc1cc(NC(C(=O)c2c[nH]c3cc(F)c(F)cc23)c2ccc(Cl)cc2OCCO)cc(S(C)(=O)=O)c1 (racemic) [Compound 7, 2-(4-chloro-2-(2-hydroxyethoxy)phenyl)-1-(5,6-difluoro-1H-indol-3-yl)-2-((3-methoxy-5-(methylsulfonyl)phenyl)amino)ethanone]
CC50 (in vitro): 2800 nM
EC50 [1, 2]: 0.26 nM

COc1cc(NC(C(=O)c2c[nH]c3cc(F)c(C)cc23)c2ccc(Cl)cc2OCCO)cc(S(C)(=O)=O)c1 (racemic) [Compound 8, 2-(4-chloro-2-(2-hydroxyethoxy)phenyl)-1-(6-fluoro-5-methyl-1H-indol-3-yl)-2-((3-methoxy-5-(methylsulfonyl)phenyl)amino)ethanone]
CC50 (in vitro): 2800 nM
EC50 [1, 2]: 0.27 nM

COc1cc(NC(C(=O)c2c[nH]c3ccc(OC(F)(F)F)cc23)c2ccc(Cl)cc2OCCO)cc(S(C)(=O)=O)c1 (racemic) [Compound 10, 2-(4-chloro-2-(2-hydroxyethoxy)phenyl)-2-((3-methoxy-5-(methylsulfonyl)phenyl)amino)-1-(5-(trifluoromethoxy)-1H-indol-3-yl)ethanone]
CC50 (in vitro): > 2400 nM
EC50 [1, 2]: 0.1 nM

COc1cc(NC(C(=O)c2c[nH]c3c(C)cc(OC(F)(F)F)cc23)c2ccc(Cl)cc2OCCO)cc(S(C)(=O)=O)c1 (racemic) [Compound 12, 2-(4-chloro-2-(2-hydroxyethoxy)phenyl)-2-((3-methoxy-5-(methylsulfonyl)phenyl)amino)-1-(7-methyl-5-(trifluoromethoxy)-1H-indol-3-yl)ethanone]
CC50 (in vitro): 2500 nM
EC50 [1, 2]: 0.1 nM

COc1cc(NC(C(=O)c2c[nH]c3cc(F)ccc23)c2ccc(Cl)cc2OCCO)cc(S(C)(=O)=O)c1 (single isomer, unassigned) [Compound 1B, 2-(4-chloro-2-(2-hydroxyethoxy)phenyl)-1-(6-fluoro-1H-indol-3-yl)-2-((3-methoxy-5-(methylsulfonyl)phenyl)amino)ethanone]
CC50 (Vero cells): 8400 nM
EC50 [1]: 3.5 nM

COc1cc(NC(C(=O)c2c[nH]c3cc(Cl)ccc23)c2ccc(Cl)cc2OCCO)cc(S(C)(=O)=O)c1 (single isomer, unassigned) [Compound 2B, 1-(6-chloro-1H-indol-3-yl)-2-(4-chloro-2-(2-hydroxyethoxy)phenyl)-2-((3-methoxy-5-(methylsulfonyl)phenyl)amino)ethanone]
CC50 (Vero cells): 11000 nM
EC50 [1]: 4.9 nM

COc1cc(NC(C(=O)c2c[nH]c3cc(OC)ccc23)c2ccc(Cl)cc2OCCO)cc(S(C)(=O)=O)c1 (single isomer, unassigned) [Compound 3B, 2-(4-chloro-2-(2-hydroxyethoxy)phenyl)-1-(6-methoxy-1H-indol-3-yl)-2-((3-methoxy-5-(methylsulfonyl)phenyl)amino)ethanone]
CC50 (Vero cells): 13000 nM
EC50 [1]: 56 nM

COc1cc(NC(C(=O)c2c[nH]c3c(C)c(F)ccc23)c2ccc(Cl)cc2OCCO)cc(S(C)(=O)=O)c1 (single isomer, unassigned) [Compound 4B, 2-(4-chloro-2-(2-hydroxyethoxy)phenyl)-1-(6-fluoro-7-methyl-1H-indol-3-yl)-2-((3-methoxy-5-(methylsulfonyl)phenyl)amino)ethanone]
CC50 (Vero cells): 5700 nM
EC50 [1]: 11 nM

COc1cc(NC(C(=O)c2c[nH]c3c(C)c(Cl)ccc23)c2ccc(Cl)cc2OCCO)cc(S(C)(=O)=O)c1 (single isomer, unassigned) [Compound 5A, 2-(4-chloro-2-(2-hydroxyethoxy)phenyl)-1-(6-chloro-7-methyl-1H-indol-3-yl)-2-((3-methoxy-5-(methylsulfonyl)phenyl)amino)ethanone]
CC50 (in vitro): 5000 nM
EC50 [1]: 8.4 nM

COc1cc(NC(C(=O)c2c[nH]c3cc(OC)c(C)cc23)c2ccc(Cl)cc2OCCO)cc(S(C)(=O)=O)c1 (single isomer, unassigned) [Compound 6B, 2-(4-chloro-2-(2-hydroxyethoxy)phenyl)-2-((3-methoxy-5-(methylsulfonyl)phenyl)amino)-1-(6-methoxy-5-methyl-1H-indol-3-yl)ethanone]
CC50 (Vero cells): 5900 nM
EC50 [1]: 36 nM

COc1cc(NC(C(=O)c2c[nH]c3cc(F)c(F)cc23)c2ccc(Cl)cc2OCCO)cc(S(C)(=O)=O)c1 (single isomer, unassigned) [Compound 7B, 2-(4-chloro-2-(2-hydroxyethoxy)phenyl)-1-(5,6-difluoro-1H-indol-3-yl)-2-((3-methoxy-5-(methylsulfonyl)phenyl)amino)ethanone]
CC50 (Vero cells): 9200 nM
EC50 [1]: 5 nM

COc1cc(NC(C(=O)c2c[nH]c3cc(F)c(C)cc23)c2ccc(Cl)cc2OCCO)cc(S(C)(=O)=O)c1 (single isomer, unassigned) [Compound 8B, 2-(4-chloro-2-(2-hydroxyethoxy)phenyl)-1-(6-fluoro-5-methyl-1H-indol-3-yl)-2-((3-methoxy-5-(methylsulfonyl)phenyl)amino)ethanone]
CC50 (Vero cells): > 2400 nM
EC50 [1]: 1.7 nM

COc1cc(NC(C(=O)c2c[nH]c3ccc(C(F)(F)F)cc23)c2ccc(Cl)cc2OCCO)cc(S(C)(=O)=O)c1 (single isomer, unassigned) [Compound 9A, 2-(4-chloro-2-(2-hydroxyethoxy)phenyl)-2-((3-methoxy-5-(methylsulfonyl)phenyl)amino)-1-(5-(trifluoromethyl)-1H-indol-3-yl)ethanone]
CC50 (Vero cells): 11000 nM
EC50 [1]: 1.9 nM

COc1cc(NC(C(=O)c2c[nH]c3ccc(OC(F)(F)F)cc23)c2ccc(Cl)cc2OCCO)cc(S(C)(=O)=O)c1 (single isomer, unassigned) [Compound 10A, 2-(4-chloro-2-(2-hydroxyethoxy)phenyl)-2-((3-methoxy-5-(methylsulfonyl)phenyl)amino)-1-(5-(trifluoromethoxy)-1H-indol-3-yl)ethanone]
CC50 (in vitro): 2300 nM
EC50 [1]: 2.9 nM

COc1cc(NC(C(=O)c2c[nH]c3cc(OC)c(OC(F)(F)F)cc23)c2ccc(Cl)cc2OCCO)cc(S(C)(=O)=O)c1 (single isomer, unassigned) [Compound 11A, 2-(4-chloro-2-(2-hydroxyethoxy)phenyl)-2-((3-methoxy-5-(methylsulfonyl)phenyl)amino)-1-(6-methoxy-5-(trifluoromethoxy)-1H-indol-3-yl)ethanone]
CC50 (in vitro): > 2300 nM
EC50 [1]: 1.5 nM

COc1cc(NC(C(=O)c2c[nH]c3c(C)cc(OC(F)(F)F)cc23)c2ccc(Cl)cc2OCCO)cc(S(C)(=O)=O)c1 (single isomer, unassigned) [Compound 12A, 2-(4-chloro-2-(2-hydroxyethoxy)phenyl)-2-((3-methoxy-5-(methylsulfonyl)phenyl)amino)-1-(7-methyl-5-(trifluoromethoxy)-1H-indol-3-yl)ethanone]
CC50 (in vitro): 2500 nM
EC50 [1]: 5 nM
